Measured values from patent publication US10130611B2, “Use of benzo-heterocycle derivatives for preventing and treating cancer or for inhibiting cancer metastasis” (MEDICINAL BIOCONVERGENCE RESEARCH CENTER, priority 2009, dated 2018).

How the values were obtained:
[1] = biological target: T1, intracellular interaction between KRS and 67LR (Homo sapiens, UniProt Q15046); assay: Co-immunoprecipitation of KRS with 67LR in cells treated with KL1; type: cell-based
T1 construct: endogenous in cells
Procedure: As a control, an OD level of cells treated with DMSO was measured. FIG. 32 is a photograph showing cell growth in wells containing yeast cells having indicated interaction pairs in the presence or absence of CAND-KL1. In FIG. 33, in 293 cells, through co-immunoprecipitation, the KL1-dose-dependent effect on the interaction between KRS and 67LR was tested. The cells were treated with KL1 for 3 hours, 67LR was immunoprecipitated, and co-precipitation of KRS was determined by western blotting. In FIG. 34, in the presence of KL1 in indicated levels, a laminin receptor labeled with radioisotope was mixed with GST-KRS (1 μg). GST-KRS was precipitated with glutathione-Sepharose beads, and co-precipitated laminin receptor was detected with autoradiography. In FIG. 35, in A549 cells, the effect of KL1 on the intracellular level of 67LR and 37LRP was tested with western blotting. […] GST-KRS was immobilized on a CM5 Sensor Chip, and the binding was measured by a resonance unit (RU) at indicated concentrations (indicated by different colors). […]
From among the compounds, the inventors also examined whether the compound represented by Formula 15 (indicated by CAND-KL1, and KL1) can inhibit the intracellular interaction between KRS and 67LR. […] Then, 67LR was immunoprecipitated with its antibody, and co-immunoprecipitation of KRS was determined. […]

[2] = tested on: MMP2; assay: MMP2 activity (zymography); type: cell-based, human; settings: KL1 in different amounts
Procedure: (§1) On MMP2 activity (FIG. 37) and cell migration (FIGS. 38 and 39), KL1-dose-dependent effect was measured. For the test on the cell migration, the cells were treated with KL1 for 8 hours. In FIG. 40, in order to see the effect of KL1 on protein synthesis of cells, A549 cells were treated with KL1 at indicated concentrations, and starved in methionine-free medium. Then, [^35S] methionine was added thereto for 2 hours. Then, the cells were incubated in complete medium for 4 hours, and the level of added methionine was measured by a scintillation counter. In FIG. 41, KL1-dose-dependent cytotoxicity was measured by using A549 cells. In FIG. 42, the effect of KL1 on cancer metastasis was measured according to the method as described above. In each group, 6 mice were included, and KL1 was abdominally injected for 3 weeks, in a dose of 30 mg/kg once a day. Then, the mice were sacrificed. The metastasized tumor nodules over 1 mm in diameter were counted, and their average was calculated (left). The photograph of a representative lung is shown at the right side. In FIG. 43, on a KL1 treated group and a KL1 non-treated, primary tumors were observed.
A549 cells were transfected with the plasmids encoding the indicated siRNAs and recombinant KRS (or DRS) were incubated for 48 and 24 hours, respectively, and were inoculated to RPMI medium containing 10% FBS (1×10^5 cells/well). […]

[3] = tested on: A549 cells; assay: Cell protein synthesis ([35S]methionine incorporation); type: cell-based, human; settings: KL1 at indicated concentrations, [35S]methionine 2 hours
Procedure: as §1, with “In FIG. 43, on a KL1 treated group and a KL1 non-treated, primary tumors were observed.” left out
A549 cells were treated with the compound (2-[2-(4-methyl-benzoylimino)-benzothiazole-3-yl]-butyric acid, CAND-KL1 or KL1) represented by Formula 15, at indicated concentrations. […] They were lysed, and the radiation dose of lysed cells was measured by a scintillation counter.

[4] = tested on: A549 cells; assay: Cytotoxicity analysis (EZ-cytox); type: cell-based, human; settings: KL1 at indicated concentrations, 24 hours
Procedure: 10^4 A549 cells were placed in a 96-well plate, and treated with the compound represented by Formula 15, at indicated concentrations for 24 hours. Then, EZ-cytox (Daeil Lab, Korea) compound was added in an amount of 10 μl to each well in accordance with the manufacturer's instruction, followed by cultivation for 2 hours. A microplate reader was used to measure the absorbance at 420 nm.

T1 sequence (Q15046 2-597 limits assumed): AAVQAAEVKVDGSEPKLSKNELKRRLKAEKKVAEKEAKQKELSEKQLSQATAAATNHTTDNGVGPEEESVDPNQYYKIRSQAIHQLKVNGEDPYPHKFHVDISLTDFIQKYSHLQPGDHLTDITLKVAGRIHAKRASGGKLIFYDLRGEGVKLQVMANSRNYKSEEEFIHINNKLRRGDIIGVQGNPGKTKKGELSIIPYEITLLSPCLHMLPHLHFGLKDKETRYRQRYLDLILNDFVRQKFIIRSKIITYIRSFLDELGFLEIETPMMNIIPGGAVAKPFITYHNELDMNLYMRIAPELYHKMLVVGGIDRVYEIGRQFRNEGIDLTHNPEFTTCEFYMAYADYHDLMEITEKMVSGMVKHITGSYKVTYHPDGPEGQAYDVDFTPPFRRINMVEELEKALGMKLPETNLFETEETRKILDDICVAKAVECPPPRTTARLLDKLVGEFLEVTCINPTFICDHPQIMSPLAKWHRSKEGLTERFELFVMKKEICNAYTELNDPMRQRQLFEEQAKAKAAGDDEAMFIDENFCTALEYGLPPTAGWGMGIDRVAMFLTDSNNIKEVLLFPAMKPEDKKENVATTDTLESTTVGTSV

CCC(C(=O)O)n1/c(=N/C(=O)c2ccc(C)cc2)sc2ccccc21 (centres unmarked) [Compound of formula 15, 2-[2-(4-Methyl-benzoylimino)-benzothiazol-3-yl]-butyric acid]
level of KRS co-precipitated with 67LR ([1]; cells treated with KL1 at different concentrations, 3 hours, 67LR immunoprecipitated): decreased according the increase of KL1 level | intracellular levels of KRS and 67LR ([1]; same co-immunoprecipitation experiment (FIG. 33)): not changed | MMP2 activity [2]: inhibited | intracellular protein synthesis [3]: not influenced | viability [4]: not influenced
